In US12318365B2, “Inhibition of dipeptide repeat proteins” (ALS Therapy Development Institute, priority 2019, dated 2025):
“Also recorded” adds a separate entry of the source.

Columns and labels:
NSC-34 cells = test: LDH assay (cytotoxicity) in NSC-34 cells; assay type: cell-based; settings: for toxicity independently of GR and PR treatment: no DRP
Text: LDH Assay: The LDH assay is a colorimetric assay that measures cell toxicity and death. […] When cells lose membrane integrity, an enzyme found in living cells called lactate dehydrogenase (LDH) is released into the solution surrounding the dying cell. A form of programmed cell death, apoptosis, as well as other forms of cell death also ultimately lead to a cell's membrane being destroyed, resulting in a large release of LDH into the extracellular space. Thus, LDH is an excellent marker not only for necrosis, but for all instances of cell death. In an LDH assay, a sample of the solution surrounding the cell is isolated, and transferred to a plate containing an LDH reaction mixture. This reaction mixture contains a tetrazolium salt intermediate and other reaction constituents that, when exposed to LDH, convert the tetrazolium salt into a colored Formazan product. This Formazan product can be quantified spectrophotometrically. Greater absorbance readings correspond to more cell death.
One row on the top and bottom of the plate, and two columns on either side of the plate, were left without cells and contained culture medium only to minimize experimental well volume evaporation. After plating, cells were incubated for 24 h at 37° C., 5% CO2 prior to DRP and/or PRMT inhibitor addition. At time of DRP/PRMT inhibitor addition, desired doses of DRP for challenge and inhibitor for treatment were achieved by diluting aliquots of each stock in warm culture medium. During experiments where both PRMT inhibitors and DRPs were used, PRMT inhibitors were always applied to wells first, and followed by DRP application. […] Inhibitor toxicity controls were included as wells treated with the desired doses of drug for the experiment, but no DRP. DRP toxicity controls were included as wells only treated with the doses of DRP used for challenge. Once dosed, plates were incubated for 24 h at 37° C., 5% CO2 prior to running the WST-1 or LDH assay endpoints. Additional controls needed for each endpoint are specified in the “WST-1 Assay” and “LDH Assay” sections of these methods.
LDH Assay: Cells were plated and prepared using the steps described in the “Plating NSC-34 and Dosing with DRPs and PRMT Inhibitors” section of these methods. Other controls for this experiment included several sets of wells with only cells in culture medium (one triplicate designated for “untreated,” one triplicate designated for “lysed” positive control), and wells with culture medium only. An additional control added only to the transfer plate at time of testing was 5 μL LDH only. Testing was performed using colorimetric LDH-Cytotoxicity Assay Kit II (Abcam, Cambridge, MA, USA) per manufacturer's instructions. Final read at 450 nm was performed on a SpectraMax M3 Microplate Reader (Molecular Devices, San Jose, CA, USA). Data analysis included calculation of % LDH release using the following equation: […]
Experiments included three replicates per condition. Each experiment was repeated twice (executed three times total).
(§1) The following conditions were plated in triplicate.
Plates were incubated for 24 h at 37° C., 5% CO2. Cells were tested and data were analyzed by LDH assay.
Cells were plated in culture medium in 2 96-well plates at a density of 3.7×10^4 cells per well, and incubated overnight at 37° C., 5% CO2.
as §1
Cells were plated in culture medium in 2 96-well plates at a density of 3.7×10^4 cells per well, and incubated overnight at 37° C., 5% CO2. […]
The following conditions were plated in triplicate. […]

[1] = test system: asymmetrical arginine methylation of NSC-34 cells; test: Cellular asymmetric arginine methylation (800/700 fluorescence readout) in NSC-34 cells; assay type: cell-based, Mouse; settings: 24 hour treatment
Description: On Day 0, NSC-34 Cells were plated in 48 wells of a 96 well plate, and CHO cells were plated in the other 48 wells of the same 96-well plate. NSC-34 cells were plated in DMEM/High glucose media. CHO cells were plated in Ham's F-12K (Kaighn's) Medium. Both cell lines were incubated overnight to reach approximately 50% confluency.
On Day 1, 24 wells of the NSC-34 cells and 24 wells of the CHO cells were treated with the following concentrations of MS023: 1 μM, 3 μM, 6 μM, 10 μM, 30 μM, and 60 μM. The cells were then incubated overnight.
On Day 2, 18 wells of the untreated NSC-34 cells and 18 wells of the untreated CHO cells were treated with the same concentrations of MS023 as those on Day 1. This left 6 wells of each cell line that never received MS023. Once MS023 was added, the cells were incubated overnight.
On Day 3, all media in the 96-well plate was removed and the cells were fixed with 3.7% Paraformaldehyde (PFA). Cells were then washed and permeabilized with 1×PBS/0.1% Triton X-100.
After removing the PBS/Triton wash, Odyssey Blocking Buffer (LI-COR, 927-40100) was applied to all wells and the plate sat at room temperature with moderate shaking for 90 minutes. After 90 minutes, the blocking buffer was removed and the cells were treated with a 1:500 dilution of the Anti-Asymmetric Di-Methyl Arginine Motif primary antibody (Cell Signaling Technology, #13522). Incubation with the primary antibody continued overnight at 4 degrees Celsius with no shaking.
On Day 4, the primary antibody solution was removed from the plate, and the cells were washed with 1×PBS/0.1% Tween 20. After washing, cells were given a secondary antibody mixture containing a 1:1000 dilution of IRDye 800 CW Anti-Rabbit antibody (LI-COR, 926-32211) and a 1:500 dilution of Cell Tag 700 Stain (LI-COR, 926-41090). The secondary antibody mixture remained on cells for 60 minutes with gentle shaking and protected from light.
(§2) After 60 minutes, the secondary antibody mixture was removed and the cells were again washed with 1×PBS/0.1% Tween 20. All wash buffer was then removed, and the plate was gently patted dry to remove excess solution. The plate was then read on the LI-COR Odyssey Classic Imaging System which provides results based on fluorescence. In this experiment, fluorescence occurred as a result of cellular, asymmetric arginine methylation. MS023 was given to cells for either 24 or 48 hours, with expectation for it to reduce cellular, asymmetric arginine methylation. Cell number per well was accounted for using the Cell Tag 700 Stain, which fluorescently labels total protein levels in a cell. To this effect, fluorescence from asymmetrical arginine methylation per well (800) was divided by fluorescence from the total protein level per well (700) to produce an outcome of 800/700.
On Day 1, 24 wells of the NSC-34 cells and 24 wells of the CHO cells were treated with the following concentrations of MS049: 0.2 μM, 1 μM, 2 μM, 10 μM, 20 μM, and 100 μM. The cells were then incubated overnight.
On Day 2, 18 wells of the untreated NSC-34 cells and 18 wells of the untreated CHO cells were treated with the same concentrations of MS049 as those on Day 1. This left 6 wells of each cell line that never received MS049. Once MS049 was added, the cells were incubated overnight.
as §2, with “MS049” for “MS023”, “To this effect, fluorescence from asymmetrical arginine methylation per well (800) was divided by fluorescence from the total protein level per well (700) to produce an outcome of 800/700.” left out

In the case of `CNCCN1CCC(OCc2ccccc2)CC1` [MS049], the “dose dependence of abrogation of GR15-induced cytotoxicity” value (NSC-34 cells; 3 μM GR15, 24 h, dose range of the example) is reported as “dose-dependently abrogated”, the “abrogation of GR-induced toxicity” value (NSC-34 cells; 3 μM GR15, 24 h, doses 0.2, 1, 2, 20 and 100 μM) is reported as “partially abrogated” and the “abrogation of GR-induced toxicity” value (NSC-34 cells; 3 μM GR15, 24 h, doses 2 and 10 μM) is reported as “completely abrogated”. For the same compound, the “abrogation of GR15-induced cytotoxicity” value (NSC-34 cells; 3 μM GR15, doses 1 and 20 μM) was “partially abrogated”, the “dose dependence of abrogation of PR15-induced cytotoxicity” value (NSC-34 cells; 3 μM PR15, 24 h, dose range of the example) was “dose-dependently abrogated” and the “abrogation of PR-induced toxicity” value (NSC-34 cells; 3 μM PR15, 24 h, doses 0.2, 1, 2, 20 and 100 μM) was “partially abrogated”. For the same compound, the “abrogation of PR-induced toxicity” value (NSC-34 cells; 3 μM PR15, 24 h, doses 2 and 10 μM) was “completely abrogated”, the “abrogation of PR15-induced cytotoxicity” value (NSC-34 cells; 3 μM PR15, doses 1 and 20 μM) was “partially abrogated” and the “toxicity independently of GR and PR treatment” value (NSC-34 cells; doses 100 and 20 μM) was “did cause significant toxicity; also recorded: did cause significant cytotoxicity”. For the same compound, the “toxicity independently of GR and PR treatment” value (NSC-34 cells; other doses tested (0.2, 1, 2, 10 μM)) was “not at other doses tested”, the “decrease of asymmetrical arginine methylation” value ([1]; 1 μM, vs untreated cells) was “approximately 17%” and the “decrease of asymmetrical arginine methylation” value ([1]; 100 μM) was roughly 39%.
